{
  "source": "patent US20220265657A1",
  "about": "“ADMINISTRATION METHOD AND DOSAGE REGIMEN FOR TREATMENT OF NEURODEGENERATIVE DISEASES USING TRAMETINIB AND MARKERS” (GENUV INC., priority 2019, published 2022)",
  "key": {"5XFAD mice": {"tested_on": "5XFAD mice", "test": "Immunofluorescence staining of Map2, Tau and swollen axons in cortex layer V", "assay_type": "in vivo", "experimental": "Trametinib treatment: Trametinib (Medchemexpress, Monmouth Junction, N.J.) was micronized and suspended in the vehicle containing 5% mannitol, 1.5% hydroxypropyl methylcellulose and 0.2% sodium lauryl sulfate. For pharmacokinetic analysis, 0.05, 0.2 and 0.8 mg/kg of trametinib were orally administered to 7-week-old normal mice (ICR, n=5 per group) as a single administration. […] For studies on the change in pERK expression in normal mice and whole cell RNA sequencing study, 0.1 mg/kg/day of trametinib (in 4% DMSO+96% corn oil) was orally administered to 6-week old C57BL/6 mice (n=3 per group). Mice were sacrificed after 1, 2, 3, or 4 weeks of administration. 5XFAD mice (male, n=7˜10 per group) were divided into vehicle and trametinib treated groups. 12-month old mice received vehicle or 0.1 mg/kg of trametinib for 1 month by oral gavage once a day (These mice are referred to as “13-month old 5XFAD mice” in the Examples). […] Blood was obtained after completion of treatment.\nBrains were dissected and analyzed by immunohistochemistry. For paraffin sections, brain hemispheres were embedded sagittally in paraffin and prepared into sections of […] slices. […] The sections were counterstained with DAPI. […] NeuN-positive and active caspase 3-positive cells from cortex layer V were counted using Icy micromanager program (Institut Pasteur, Paris, France)."}, "SH-SY5Y cells": {"tested_on": "SH-SY5Y cells", "test": "Western blot of SH-SY5Y cell lysates", "assay_type": "cell-based", "experimental": "Cell culture: SH-SY5Y neuroblastoma cells were cultured at 37° C., 5% CO2., in Dulbecco's Modified Eagle Medium/Ham's F-12 nutrient mixture (DMEM/F12) (Invitrogen, Carlsbad, Calif.) supplemented with 10% heat-inactivated fetal bovine serum containing 100 units/ml penicillin, 100 μg/ml streptomycin. Primary cortical neuron cultures were derived from embryo day 18 (E18) from ICR mice. The dissociated cells were plated on glass cover slips coated with poly-D-lysine in Neurobasal medium supplemented with 2% B27 (Invitrogen), 100 units/ml penicillin, 100 μg/ml streptomycin, and 2 mM L-glutamine. Primary NSCs from normal mice were isolated from the subventricular zone (SVZ) of 8 week-old C57BL/6 mice brain. NSCs from adult Tg2576 mice brain were obtained from Seoul National University Hospital. The neurospheres were cultured as previously described (M. Y. Kim, B. S. Moon, K. Y. Choi, Isolation and maintenance of cortical neural progenitor cells in vitro. Methods Mol Biol 1018, 3-10 (2013)). For neurosphere culture from normal mice, the cells were dissociated from brain tissue and grown in N2 medium in 25 cm^2 flasks (SPL, Gyeonggi-do, Korea) in suspension. bFGF (20 ng/ml, Peprotech, Princeton, N.J.) and human EGF (20 ng/ml, Peprotech) were added to the media to allow the cells to form neurospheres. For analyses, NSCs were cultured as a monolayer. For differentiation of NSCs, the neurospheres were dissociated with TrypLE (Invitrogen), plated on 15 μg/ml poly-L-ornithine-(Sigma-Aldrich, St. Louis, Mo.) and 10 μg/ml fibronectin (Gibco)-coated plates, and cultured in bFGF- and EGF-depleted N2 medium for 2 days. For neurosphere culture from Tg2576 mice, the cells were grown in DMEM/F12 supplemented with B27 supplements in 75 cm^2 flasks (SPL) in suspension. bFGF (10 ng/ml) and human EGF (10 ng/ml) were added to the media to allow the cells to form neurospheres. For inducing differentiation and AP expression, the neurospheres were dissociated with pipetting, plated on 15 μg/ml poly-L-ornithine- and 10 μg/ml fibronectin (Gibco)-coated plates, and cultured in bFGF- and EGF-depleted medium for 2 days.\nLysates were centrifuged at 13,000 rpm for 20 min at 4° C., and the protein content in the supernatant was determined using the Bradford assay (Bio-rad, Hercules, Calif.). For subcellular fractionation, cells were lysed with lysis buffer (250 mM Sucrose, 20 mM HEPES, pH 7.4, 10 mM KCl, 1.5 mM MgCl2, 1 mM EGTA, 1 mM EDTA, 1 mM DTT) containing protease inhibitor for 30 min on ice, followed by centrifugation at 720 g for 5 min at 4° C. Supernatants were centrifuged at 15,000 rpm for 10 min at 4° C., and the resulting supernatant was used as the cytosol fraction. After centrifugation at 720 g for 5 min, pellets were washed with lysis buffer and dissolved in nuclear lysis buffer (50 mM Tris HCl, pH 8.0, 150 mM NaCl, 1% NP40, 0.5% sodium deoxycholate, 0.1% SDS, 10% glycerol) as the nuclear fraction. Protein from each sample was subjected to 8%˜15% SDS-PAGE, and the resolved proteins were transferred to nitrocellulose or polyvinylidene fluoride membrane. The membranes were blocked with 5% nonfat milk powder in Tris-buffered saline/Tween 20 (TBST) for 1 h at room temperature, then incubated with anti-phospho-ERK (Cell signaling), anti-ERK (Cell signaling), anti-LAMP1 (Abcam), anti-LC3 (Cell signaling), anti-cathepsin B (Cell signaling), anti-p62 (Cell signaling), anti-p62 (5114, Cell signaling), anti-phospho-mTOR (5536, Cell signaling), anti-mTOR (2983, Cell signaling), anti-phospho-ULK1 (14202, Cell signaling), anti-ULK1 (8054, Cell signaling), anti-TFEB (852501, Biolegend), and anti-GAPDH (Cell signaling) overnight at 4° C."}, "[1]": {"details": "SH-SY5Y cells treated with Aβ1-42"}, "[2]": {"details": "SH-SY5Y cells, in the presence of Aβ1-42 oligomers"}},
  "data": [
    {"smiles": "CC(=O)Nc1cccc(-n2c(=O)n(C3CC3)c(=O)c3c(Nc4ccc(I)cc4F)n(C)c(=O)c(C)c32)c1", "note": "[trametinib]", "values": [
      {"measurement": "bulb-like swollen axons", "setting": "5XFAD mice; 5XFAD mice, compared to vehicle-administered group", "value": "significantly reduced"},
      {"measurement": "dendritic and axonal lengths (Map2, Tau)", "setting": "5XFAD mice; cortex of 8-month-old and 13-month-old 5XFAD mice", "value": "recovery of dendritic and axonal lengths"},
      {"measurement": "increase of LC3-II/LC-I level compared to Aβ1-42 treated alone cells", "setting": "SH-SY5Y cells; [1]", "value": 65, "unit": "%"},
      {"measurement": "increase of mature cathepsin B level compared to Aβ1-42 treated alone cells", "setting": "SH-SY5Y cells; [1]", "value": 44, "unit": "%"},
      {"measurement": "nuclear translocation of TFEB", "setting": "SH-SY5Y cells; [2]", "value": "induced nuclear translocation of TFEB"},
      {"measurement": "p62 as a marker of autophagic flux", "setting": "SH-SY5Y cells; [2]", "value": "Degradation of p62"},
      {"measurement": "phosphorylation of mTOR and ULK1 on Ser758", "setting": "SH-SY5Y cells; [2]", "value": "inhibited the phosphorylation"}
    ]}
  ]
}
